Measurements published in ChEMBL document CHEMBL6087468, “TKK130 is a 3-Hydroxy-Propanamidine (HPA) with Potent Antimalarial In Vivo Activity and a High Barrier to Resistance” (J Med Chem, 2025).

Tests used:
Plasmodium falciparum [1] = assay: Antimalarial activity against chloroquine, sulfadoxine, and pyrimethamine-resistant Plasmodium falciparum Dd2 infected in erythrocytes measured after 3 days by HRP2-ELISA analysis; assay type: functional, organism-based; conditions: Dd2, Erythrocyte, 72 h
Plasmodium falciparum [2] = assay: Antimalarial activity against Plasmodium falciparum NF54 infected in human erythrocytes assessed as inhibition of parasite growth measured after 48 hrs incubation by [3H]hypoxanthine incorporation assay; assay type: functional, organism-based; conditions: NF54, Erythrocyte

SMILES: Cl.N=C(CC(O)c1cc2c(F)cc(F)cc2c2cc(C(F)(F)F)ccc12)Nc1ccc(F)cc1 (configuration not stated)
- IC50 (Plasmodium falciparum [1]): 3 nM
- IC50 (Plasmodium falciparum [2]): 11 nM
